Reference: publication PMC7179227, “Antigenotoxic, Anti-photogenotoxic, and Antioxidant Properties of Polyscias filicifolia Shoots Cultivated In Vitro” (Molecules, 2020)
Like-named read-outs stand apart in the source and are kept apart here.

What was measured:
[1] = system: S. typhimurium TA1535/pSK1002
Protocol: Metabolic activation was obtained with S9 fraction prepared from livers of male Sprague Dawley rats. […] After isolation, the evaluation of cytochrome p450 level was performed and samples were stored at −80 ^∘ C. The S9 mix was prepared according to the method described by Maron and Ames.
(§1) IR was calculated on the basis of spectrophotometric measurement.

[2] = system: S. typhimurium TA98 strain; settings: against 4NQO; cited from earlier work
[3] = system: S. typhimurium TA1535/pSK1002; settings: mixture with 4NQO 0.05 μg/mL
Protocol: Salmonella typhimurium strain TA1535/pSK1002 was purchased from Deutsche Sammlung von Mikroorganismen und Zellkulturen GmbH (DSMZ, Germany).
The strain used in the test carries the fusion of umuC and lacZ genes, which are placed at the plasmid pSK1002. […] In the present study, the umu-test was carried out in the micro-plate variant according to the ISOguideline [61]. β -galactosidase activity of the tested compound was presented as induction ratio (IR). IR was calculated as the β -galactosidase activity of the tested compound relative to the negative control.
IR was calculated on the basis of spectrophotometric measurement. The absorption at 420 nm indicated the intensity of the enzymatic reaction, and the optical density at 600 nm indicated the bacteria growth. The measurements were performed with an Asys UVM340 Hightech microplate spectrophotometer.
At the same time, the genotoxicity of PhAs (10 μ g/mL) and EXTs (0.25–2 mg/mL) was investigated.

[4] = system: S. typhimurium TA1535/pSK1002; remark: listed apart in the source
Protocol: as §1
The anti-photogenotoxicity was determined using chlorpromazine (CPZ) as an agent inducing genotoxic response under UVA irradiation by forming an unstable promazyl radical which is able to bind to DNA [62]. The protocol developed by Skrzypczak et. al was applied. […] The rate of anti-photogenotoxicity was calculated using the same formula as the rate of antigenotoxicity.

[5] = system: S. typhimurium TA1535/pSK1002; assay type: cell-based, Salmonella typhimurium
Protocol: as §1

[6] = system: S. typhimurium TA1535/pSK1002; settings: −S9, highest tested concentration 10 μg/mL
Protocol: as §1

MMC genotoxicity = settings: CGA 5 and 50 μM, MMC 0.9 μM (0.3 μg/mL); cited from earlier work
[7] = +S9, highest tested concentration 10 μg/mL
[8] = mixture with 2AA 1 μg/mL, PhA concentration 0.3125 (mg/mL)
[9] = mixture with 2AA 1 μg/mL, PhA concentration 0.625 (mg/mL)
[10] = mixture with 2AA 1 μg/mL, PhA concentration 1.25 (mg/mL)
[11] = mixture with 2AA 1 μg/mL, PhA concentration 2.5 (mg/mL)
[12] = mixture with 2AA 1 μg/mL, PhA concentration 5 (mg/mL)
[13] = mixture with 2AA 1 μg/mL, PhA concentration 10 (mg/mL)
[14] = mixture with 2AA 10 μg/mL, PhA concentration 0.3125 (mg/mL)
[15] = mixture with 2AA 10 μg/mL, PhA concentration 0.625 (mg/mL)
[16] = mixture with 2AA 10 μg/mL, PhA concentration 1.25 (mg/mL)
[17] = mixture with 2AA 10 μg/mL, PhA concentration 2.5 (mg/mL)
[18] = mixture with 2AA 10 μg/mL, PhA concentration 5 (mg/mL)
[19] = mixture with 2AA 10 μg/mL, PhA concentration 10 (mg/mL)
[20] = mixture with CPZ 5 μg/mL, UVA, PhA 5 μg/mL
[21] = mixture with CPZ 5 μg/mL, UVA, PhA 10 μg/mL
[22] = mixture with CPZ 5 μg/mL, UVA, PhA […]
[23] = mixture with CPZ 10 μg/mL, UVA, PhA 5 μg/mL
[24] = mixture with CPZ 10 μg/mL, UVA, PhA 10 μg/mL
[25] = mixture with CPZ 10 μg/mL, UVA, PhA […]
[26] = mixture with MMC 0.004 μg/mL, PhA 5 μg/mL
[27] = mixture with MMC 0.004 μg/mL, PhA 10 μg/mL
[28] = mixture with MMC 0.004 μg/mL, PhA […]
[29] = mixture with MMC 0.02 μg/mL, PhA 5 μg/mL
[30] = mixture with MMC 0.02 μg/mL, PhA 10 μg/mL
[31] = mixture with MMC 0.02 μg/mL, PhA […]

## Nc1ccc2cc3ccccc3cc2c1 [2AA, 2-aminoanthracene]
[1]; control: 2AA 1 μg/mL alone, +S9, experiments with PhAs
  IR (mean ± SD): 3.37 ± 0.72
[1]; control: 2AA 1 μg/mL alone, +S9, experiments with extracts
  IR (mean ± SD): 4.5 ± 0.99
[1]; control: 2AA 10 μg/mL alone, +S9, experiments with PhAs
  IR (mean ± SD): 4 ± 1.3
[1]; control: 2AA 10 μg/mL alone, +S9, experiments with extracts
  IR (mean ± SD): 6 ± 1.5

## O=C(O)/C=C/c1ccc(O)c(O)c1 [CA, caffeic acid]
[2]
  reduction of the number of revertants: 28%
[1]; 2AA 10 μg/mL, PhA concentration 1.25 (mg/mL)
  Antigenotox.: 24%
[1]; [7]
  IR (mean ± SD): 1.0 ± 0.11
[1]; [8]
  IR (mean ± SD): 3 ± 1.0
[1]; [9]
  IR (mean ± SD): 3.1 ± 0.55
[1]; [10]
  IR (mean ± SD): 3.1 ± 0.29
[1]; [11]
  IR (mean ± SD): 3.1 ± 0.53
[1]; [12]
  IR (mean ± SD): 3.7 ± 0.77
[1]; [13]
  IR (mean ± SD): 3.8 ± 0.85
[1]; [14]
  IR (mean ± SD): 2.8 ± 0.60
[1]; [15]
  IR (mean ± SD): 3.4 ± 0.90
[1]; [16]
  IR (mean ± SD): 2.7 ± 0.34
[1]; [17]
  IR (mean ± SD): 3.2 ± 0.51
[1]; [18]
  IR (mean ± SD): 3.6 ± 0.89
[1]; [19]
  IR (mean ± SD): 3.7 ± 0.80
[3]; PhA 5 μg/mL
  IR (mean ± SD): 3.7 ± 0.69
[3]; PhA 10 μg/mL
  IR (mean ± SD): 3.9 ± 0.99
[4]; CPZ 5 μg/mL, UVA, PhA […]
  Anti-Photogenotox.: 11%
[4]; CPZ 10 μg/mL, UVA, PhA […]
  Anti-Photogenotox.: 10%
[4]; [20]
  IR (mean ± SD): 3.3 ± 0.33
[4]; [21]
  IR (mean ± SD): 3.4 ± 0.25
[4]; [22]
  IR (mean ± SD): 3.2 ± 0.40
[4]; [23]
  IR (mean ± SD): 5 ± 1.2
[4]; [24]
  IR (mean ± SD): 4.9 ± 0.90
[4]; [25]
  IR (mean ± SD): 4.5 ± 0.49
[5]; [26]
  IR (mean ± SD): 2.7 ± 0.81
[5]; [27]
  IR (mean ± SD): 2.3 ± 0.67
[5]; [28]
  IR (mean ± SD): 2.5 ± 0.75
[5]; [29]
  IR (mean ± SD): 5 ± 1.1
[5]; [30]
  IR (mean ± SD): 5 ± 1.2
[5]; [31]
  IR (mean ± SD): 5 ± 1.2
[6]
  IR (mean ± SD): 1.1 ± 0.16

## O=C(/C=C/c1ccc(O)c(O)c1)O[C@@H]1C[C@](O)(C(=O)O)C[C@@H](O)[C@H]1O [CGA, Chlorogenic acid]
MMC genotoxicity
  inhibition of MMC genotoxicity: 65%

## CN(C)CCCN1c2ccccc2Sc2ccc(Cl)cc21 [CPZ, chlorpromazine]
[4]; control: CPZ 5 μg/mL alone, UVA irradiation
  IR (mean ± SD): 3.6 ± 0.40
[4]; control: CPZ 10 μg/mL alone, UVA irradiation
  IR (mean ± SD): 5.1 ± 0.78

## COc1cc(/C=C/C(=O)O)ccc1O [FA, ferulic acid]
[1]; 2AA 1 μg/mL, PhA concentration 0.625 (mg/mL)
  Antigenotox.: 19%
[1]; [7]
  IR (mean ± SD): 1.1 ± 0.14
[1]; [8]
  IR (mean ± SD): 3.1 ± 0.73
[1]; [9]
  IR (mean ± SD): 2.7 ± 0.37
[1]; [10]
  IR (mean ± SD): 2.9 ± 0.66
[1]; [11]
  IR (mean ± SD): 2.8 ± 0.58
[1]; [12]
  IR (mean ± SD): 3.4 ± 0.96
[1]; [13]
  IR (mean ± SD): 4 ± 1.0
[1]; [14]
  IR (mean ± SD): 2.9 ± 0.43
[1]; [15]
  IR (mean ± SD): 3.1 ± 0.75
[1]; [16]
  IR (mean ± SD): 3.3 ± 0.63
[1]; [17]
  IR (mean ± SD): 3.2 ± 0.45
[1]; [18]
  IR (mean ± SD): 4 ± 1.3
[1]; [19]
  IR (mean ± SD): 5 ± 1.4
[3]; PhA 5 μg/mL
  IR (mean ± SD): 3.6 ± 0.67
[3]; PhA 10 μg/mL
  IR (mean ± SD): 4.0 ± 0.70
[4]; CPZ 5 μg/mL, UVA, PhA 5 μg/mL
  Anti-Photogenotox.: 15%
[4]; CPZ 5 μg/mL, UVA, PhA 10 μg/mL
  Anti-Photogenotox.: 11%
[4]; CPZ 5 μg/mL, UVA, PhA […]
  Anti-Photogenotox.: 20%
[4]; CPZ 10 μg/mL, UVA, PhA 10 μg/mL
  Anti-Photogenotox.: 15%
[4]; CPZ 10 μg/mL, UVA, PhA […]
  Anti-Photogenotox.: 14%
[4]; [20]
  IR (mean ± SD): 3.0 ± 0.37
[4]; [21]
  IR (mean ± SD): 3.2 ± 0.20
[4]; [22]
  IR (mean ± SD): 3.0 ± 0.41
[4]; [23]
  IR (mean ± SD): 4.5 ± 0.73
[4]; [24]
  IR (mean ± SD): 4.3 ± 0.46
[4]; [25]
  IR (mean ± SD): 4 ± 1.1
[5]; [26]
  IR (mean ± SD): 2.5 ± 0.62
[5]; [27]
  IR (mean ± SD): 2.3 ± 0.51
[5]; [28]
  IR (mean ± SD): 2.6 ± 0.93
[5]; [29]
  IR (mean ± SD): 5 ± 1.2
[5]; [30]
  IR (mean ± SD): 5 ± 1.2
[5]; [31]
  IR (mean ± SD): 5 ± 1.2
[6]
  IR (mean ± SD): 1.2 ± 0.10
